Laboratory results from patent US20260317367A1, “SALTS INCLUDING CRYSTALLINE SALTS OF 25-HYDROXY-CHOLEST-5-EN-3-SULFATE AND METHODS FOR PREPARING SAME” (Durect Corporation, priority 2022, published 2026).
Where a name gives a salt, the structure may show the parent alone.

Tests used:
[1] = Humidity / water activity stability of crystalline 25HC3S sodium forms; assay type: physicochemical
[2] = tested on: cholesterol secretion and degradation; conditions: shown previously; cited from earlier work
lipid biosynthesis = conditions: shown previously; cited from earlier work
[3] = Dynamic vapor sorption (DVS), hygroscopicity; assay type: physicochemical; conditions: DVS
Text: Dynamic vapor sorption (DVS) measures the uptake of a vapor (typically water) by a sample when exposed to a changing relative humidity. The loss of water can also be measured as relative humidity is decreased. Hygroscopic materials tend to absorb water more readily than non-hygroscopic. In some cases, hydrates absorb water to create higher-order hydrates (e.g., a monohydrate converting to a dihydrate when exposed to increasingly humid conditions). In some salts of the disclosure, moisture is retained upon exposure in a DVS experiment and little or no weight loss is observed upon heating from room temperature. In such experiments, the hygroscopic nature of the salt under study may indicate the formation of a hydrate from an anhydrate. […] Exemplary methods for collecting DVS data are set forth in Example 26.
Dynamic vapor sorption data was collected on a Surface Measurement System DVS Intrinsic instrument. The samples were not dried prior to analysis. Sorption and desorption data were collected over a range from 5% to 95% RH in 10% RH increments under a nitrogen purge. The equilibrium criteria used for the analyses were 0.001 dm/dt weight change in 5 minutes with a minimum step time of 30 minutes and maximum equilibration time of 180 minutes with a 3 minute data logging interval. Data were not corrected for the initial moisture content of the sample.

With `C[C@H](CCCC(C)(C)O)[C@H]1CC[C@H]2[C@@H]3CC=C4C[C@@H](OS(=O)(=O)[O-])CC[C@]4(C)[C@H]3CC[C@]12C.[Na+]` [crystalline 25HC3S sodium, Sodium [(3S,10R,13R,17R)-17-[(1R)-5-hydroxy-1,5-dimethyl-hexyl]-10,13-dimethyl-2,3,4,7,8,9,11,12,14,15,16,17-dodecahydro-1H-cyclopenta[a]phenanthren-3-yl]sulfate] the “Behaviour under humid conditions (in words)” value ([1]; humid conditions) was “stabilizes as a hydrate”.
For `C[C@H](CCCC(C)(C)O)[C@H]1CCC2C3CC=C4C[C@@H](OS(=O)(=O)O)CC[C@]4(C)C3CC[C@@]21C` (stereo partly drawn) [Salt 25HC3S, [(3S,10R,13R,17R)-17-[(1R)-5-hydroxy-1,5-dimethyl-hexyl]-10,13-dimethyl-2,3,4,7,8,9,11,12,14,15,16,17-dodecahydro-1H-cyclopenta[a]phenanthren-3-yl]sulfate], the “Effect on cholesterol secretion and degradation” value [2] is given as “increases” and the “Effect on lipid biosynthesis” value (lipid biosynthesis) is given as “decreases”.
In the case of `CC(CCCC(C)(C)O)C1CCC2C3CC=C4CC(OS(=O)(=O)O)CCC4(C)C3CCC12C` (centres unmarked) [Form I, reference compound], the “Water activity above which a liquid crystal may form” value ([1]; high water activities) is reported as “above 0.73” and the “Hygroscopicity (in words)” value [3] is reported as “hygroscopic”.
